Data reported in ChEMBL document CHEMBL4507276 (2021).

Legend:
[1] = target: Alpha-2B adrenergic receptor (Homo sapiens) (UniProt P18089); conditions: Compound concentration 10.0 uM
[2] = target: Sigma non-opioid intracellular receptor 1 (Homo sapiens) (UniProt Q99720); conditions: Compound concentration 10.0 uM
[3] = target: Glutamate receptor ionotropic, AMPA (Rattus norvegicus) (UniProt P19491+P19492+P19493+P19490); assay: AMPA/R Cerep selectivity data (BI); type: protein-complex assay; conditions: Compound concentration 20.0 uM
[4] = target: Catechol O-methyltransferase (Sus scrofa) (UniProt Q99028); assay: CATOMETHTRAN Cerep selectivity data (BI); conditions: Compound concentration 20.0 uM
Catechol O-methyltransferase (Sus scrofa), sequence (Q99028 whole entry): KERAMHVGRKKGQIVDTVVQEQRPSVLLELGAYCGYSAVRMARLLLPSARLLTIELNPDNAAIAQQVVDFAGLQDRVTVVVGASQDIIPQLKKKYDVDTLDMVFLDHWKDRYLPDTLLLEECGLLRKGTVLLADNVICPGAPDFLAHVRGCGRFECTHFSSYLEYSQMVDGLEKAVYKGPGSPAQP

[5] = target: Cannabinoid receptor 2 (Homo sapiens) (UniProt P34972); assay: CB2/PERIPH/H Cerep selectivity data (BI); conditions: Compound concentration 20.0 uM
Cannabinoid receptor 2 (Homo sapiens), sequence (P34972 whole entry): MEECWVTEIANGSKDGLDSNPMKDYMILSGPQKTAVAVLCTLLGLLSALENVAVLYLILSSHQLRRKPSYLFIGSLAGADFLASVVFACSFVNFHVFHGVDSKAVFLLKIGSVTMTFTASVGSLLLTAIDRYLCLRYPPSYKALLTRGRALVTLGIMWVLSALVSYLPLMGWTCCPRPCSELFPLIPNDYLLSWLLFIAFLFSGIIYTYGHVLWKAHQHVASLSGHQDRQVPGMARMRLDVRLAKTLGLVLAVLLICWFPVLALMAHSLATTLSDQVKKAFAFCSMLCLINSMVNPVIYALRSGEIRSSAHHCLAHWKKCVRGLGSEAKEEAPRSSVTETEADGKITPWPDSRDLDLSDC

[6] = target: Gastrin/cholecystokinin type B receptor (Homo sapiens) (UniProt P32239); assay: CCKB/H Cerep selectivity data (BI); conditions: Compound concentration 20.0 uM
Gastrin/cholecystokinin type B receptor (Homo sapiens), sequence (P32239 whole entry): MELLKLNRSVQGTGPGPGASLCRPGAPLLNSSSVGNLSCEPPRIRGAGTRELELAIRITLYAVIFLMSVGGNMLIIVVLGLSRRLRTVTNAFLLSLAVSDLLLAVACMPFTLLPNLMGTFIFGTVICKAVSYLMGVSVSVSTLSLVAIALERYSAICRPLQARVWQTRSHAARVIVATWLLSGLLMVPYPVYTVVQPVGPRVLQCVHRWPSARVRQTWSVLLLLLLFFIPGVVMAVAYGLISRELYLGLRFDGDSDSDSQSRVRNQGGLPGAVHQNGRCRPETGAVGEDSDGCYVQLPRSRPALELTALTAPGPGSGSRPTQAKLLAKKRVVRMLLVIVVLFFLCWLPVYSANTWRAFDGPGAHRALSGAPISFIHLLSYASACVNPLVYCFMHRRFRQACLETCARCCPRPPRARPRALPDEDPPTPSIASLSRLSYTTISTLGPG

[7] = target: D(3) dopamine receptor (Homo sapiens) (UniProt P35462); assay: D3/H Cerep selectivity data (BI); conditions: Compound concentration 20.0 uM
[8] = target: Glucagon receptor (Homo sapiens) (UniProt P47871); assay: GLUCAGONH_AGON Cerep selectivity data (BI); conditions: filed as agonist, Compound concentration 20.0 uM
[9] = target: Nitric oxide synthase, inducible (Mus musculus) (UniProt P29477); assay: INDUC_NOS Cerep selectivity data (BI); conditions: Compound concentration 20.0 uM
[10] = target: MAO-A (amine oxidase [flavin-containing] A) (Rattus norvegicus, UniProt P21396); assay: MAO-A_ANTAG Cerep selectivity data (BI); parameters: mode of action antagonist; scale not given: the % may be the effect or the level left; conditions: compound concentration 20 uM, read-out: % Ctrl
[11] = target: Melanocyte-stimulating hormone receptor (Mus musculus) (UniProt Q01727); assay: MC1_AGON Cerep selectivity data (BI); conditions: filed as agonist, Compound concentration 20.0 uM
[12] = target: Vasopressin V2 receptor (Homo sapiens) (UniProt P30518); assay: V2/H Cerep selectivity data (BI); conditions: Compound concentration 20.0 uM
[13] = target: Sodium-dependent serotonin transporter (Homo sapiens) (UniProt P31645); assay: 5HTTRANS/HU Eurofins-Panlabs selectivity data (BI); conditions: Compound concentration 10.0 uM
[14] = target: Adenosine receptor A3 (Homo sapiens) (UniProt P0DMS8); assay: A3/H Eurofins-Panlabs selectivity data (BI); conditions: Compound concentration 10.0 uM
[15] = target: Histamine H3 receptor (Homo sapiens) (UniProt Q9Y5N1); assay: H3/H Eurofins-Panlabs selectivity data (BI); conditions: Compound concentration 10.0 uM
[16] = target: Activin receptor type-2B (Homo sapiens) (UniProt Q13705); assay: ACVR2B Invitrogen selectivity data (BI); conditions: Compound concentration 3.0 uM
[17] = target: Serine/threonine-protein kinase Chk2 (Homo sapiens) (UniProt O96017); assay: CHEK2 Invitrogen selectivity data (BI); conditions: Compound concentration 3.0 uM
[18] = system: Epidermal growth factor receptor (Homo sapiens), P00533 [UNDEFINED MUTATION]; assay: EGFRT790L858 Invitrogen selectivity data (BI); conditions: Compound concentration 3.0 uM
[19] = target: Ephrin type-A receptor 4 (Homo sapiens) (UniProt P54764); assay: EPHA4 Invitrogen selectivity data (BI); conditions: Compound concentration 3.0 uM
[20] = target: Tyrosine-protein kinase Fes/Fps (Homo sapiens) (UniProt P07332); assay: FES Invitrogen selectivity data (BI); conditions: Compound concentration 3.0 uM
Tyrosine-protein kinase Fes/Fps (Homo sapiens), sequence (P07332 whole entry): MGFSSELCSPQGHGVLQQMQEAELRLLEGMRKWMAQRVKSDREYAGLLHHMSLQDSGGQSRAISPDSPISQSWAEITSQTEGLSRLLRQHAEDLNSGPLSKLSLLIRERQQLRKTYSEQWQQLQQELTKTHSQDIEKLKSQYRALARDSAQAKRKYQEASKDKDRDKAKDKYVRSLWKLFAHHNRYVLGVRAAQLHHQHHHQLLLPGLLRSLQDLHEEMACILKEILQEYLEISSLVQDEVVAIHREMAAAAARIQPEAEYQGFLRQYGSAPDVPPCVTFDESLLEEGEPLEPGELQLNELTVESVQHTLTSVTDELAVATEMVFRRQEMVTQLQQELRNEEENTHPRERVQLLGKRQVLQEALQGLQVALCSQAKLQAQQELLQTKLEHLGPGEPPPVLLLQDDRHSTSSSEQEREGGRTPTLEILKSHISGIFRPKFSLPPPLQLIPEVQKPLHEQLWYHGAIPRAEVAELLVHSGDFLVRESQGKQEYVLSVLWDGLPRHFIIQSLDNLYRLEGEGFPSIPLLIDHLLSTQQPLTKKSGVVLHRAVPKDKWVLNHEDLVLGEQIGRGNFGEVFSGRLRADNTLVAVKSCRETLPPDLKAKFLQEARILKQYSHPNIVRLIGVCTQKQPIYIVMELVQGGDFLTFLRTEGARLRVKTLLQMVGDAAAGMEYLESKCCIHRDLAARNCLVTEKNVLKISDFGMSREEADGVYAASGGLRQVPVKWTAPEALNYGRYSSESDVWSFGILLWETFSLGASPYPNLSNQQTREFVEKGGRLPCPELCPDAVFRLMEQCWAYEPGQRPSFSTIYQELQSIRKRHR

[21] = target: Fibroblast growth factor receptor 2 (Homo sapiens) (UniProt P21802); assay: FGFR2 Invitrogen selectivity data (BI); conditions: Compound concentration 3.0 uM
[22] = target: Fibroblast growth factor receptor 4 (Homo sapiens) (UniProt P22455); assay: FGFR4 Invitrogen selectivity data (BI); conditions: Compound concentration 3.0 uM
Fibroblast growth factor receptor 4 (Homo sapiens), sequence (P22455 22-802 limits assumed): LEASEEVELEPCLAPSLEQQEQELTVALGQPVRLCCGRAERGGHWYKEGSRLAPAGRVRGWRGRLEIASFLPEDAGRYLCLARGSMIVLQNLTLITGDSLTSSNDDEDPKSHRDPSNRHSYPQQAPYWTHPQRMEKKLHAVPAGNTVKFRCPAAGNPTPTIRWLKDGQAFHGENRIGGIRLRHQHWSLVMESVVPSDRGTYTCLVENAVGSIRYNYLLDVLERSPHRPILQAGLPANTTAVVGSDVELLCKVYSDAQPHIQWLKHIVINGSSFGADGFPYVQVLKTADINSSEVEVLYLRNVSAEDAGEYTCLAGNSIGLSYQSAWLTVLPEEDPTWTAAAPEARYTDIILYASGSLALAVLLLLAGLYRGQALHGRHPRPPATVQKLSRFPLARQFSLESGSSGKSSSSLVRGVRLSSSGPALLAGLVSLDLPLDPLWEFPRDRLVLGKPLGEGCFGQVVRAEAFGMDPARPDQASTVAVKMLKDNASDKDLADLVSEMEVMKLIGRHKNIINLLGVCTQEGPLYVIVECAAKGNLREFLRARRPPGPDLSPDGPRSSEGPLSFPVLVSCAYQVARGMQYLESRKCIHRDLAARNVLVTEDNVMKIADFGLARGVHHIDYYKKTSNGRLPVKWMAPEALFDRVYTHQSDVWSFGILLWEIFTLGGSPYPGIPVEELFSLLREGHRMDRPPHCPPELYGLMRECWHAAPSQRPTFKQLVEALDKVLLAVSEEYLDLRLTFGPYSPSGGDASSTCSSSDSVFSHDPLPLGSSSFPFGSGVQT

[23] = target: T1, Tyrosine-protein kinase ITK/TSK (Homo sapiens) (UniProt Q08881); assay: ITK Invitrogen selectivity data (BI); conditions: Compound concentration 3.0 uM
T1 sequence (whole entry): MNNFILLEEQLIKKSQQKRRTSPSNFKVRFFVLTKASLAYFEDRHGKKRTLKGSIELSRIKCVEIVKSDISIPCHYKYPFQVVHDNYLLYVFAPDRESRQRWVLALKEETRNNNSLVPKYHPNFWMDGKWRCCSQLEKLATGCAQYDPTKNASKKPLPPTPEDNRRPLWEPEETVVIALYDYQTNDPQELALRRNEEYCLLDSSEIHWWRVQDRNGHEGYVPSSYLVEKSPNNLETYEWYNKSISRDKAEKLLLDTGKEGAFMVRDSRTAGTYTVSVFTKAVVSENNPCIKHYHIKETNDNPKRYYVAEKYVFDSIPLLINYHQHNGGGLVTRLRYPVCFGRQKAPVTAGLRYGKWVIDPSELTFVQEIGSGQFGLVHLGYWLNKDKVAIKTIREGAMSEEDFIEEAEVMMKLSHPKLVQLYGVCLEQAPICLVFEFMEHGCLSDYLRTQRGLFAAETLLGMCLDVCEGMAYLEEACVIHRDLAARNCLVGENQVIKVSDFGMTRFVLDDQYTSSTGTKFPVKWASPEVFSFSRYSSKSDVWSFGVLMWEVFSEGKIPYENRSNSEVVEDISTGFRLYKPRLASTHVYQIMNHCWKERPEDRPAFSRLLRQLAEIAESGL

[24] = target: Phosphorylase b kinase gamma catalytic chain, skeletal muscle/heart isoform (Homo sapiens) (UniProt Q16816); assay: PHKG1 Invitrogen selectivity data (BI); conditions: Compound concentration 3.0 uM
Phosphorylase b kinase gamma catalytic chain, skeletal muscle/heart isoform (Homo sapiens), sequence (Q16816 whole entry, looked up, canonical isoform): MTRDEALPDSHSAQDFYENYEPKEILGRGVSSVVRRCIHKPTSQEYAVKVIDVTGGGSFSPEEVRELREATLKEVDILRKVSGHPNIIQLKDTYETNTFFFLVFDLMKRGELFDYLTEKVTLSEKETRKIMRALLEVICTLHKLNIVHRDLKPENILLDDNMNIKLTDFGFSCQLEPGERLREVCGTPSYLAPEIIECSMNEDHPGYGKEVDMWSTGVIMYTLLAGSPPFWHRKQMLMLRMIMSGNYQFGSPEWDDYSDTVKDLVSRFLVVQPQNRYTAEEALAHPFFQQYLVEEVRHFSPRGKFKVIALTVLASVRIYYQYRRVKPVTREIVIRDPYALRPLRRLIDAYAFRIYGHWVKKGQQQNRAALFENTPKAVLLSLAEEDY

[25] = target: Phosphatidylinositol 4-kinase beta (Homo sapiens) (UniProt Q9UBF8); assay: PI4KB Invitrogen selectivity data (BI); conditions: Compound concentration 3.0 uM
[26] = target: Serine/threonine-protein kinase N1 (Homo sapiens) (UniProt Q16512); assay: PKN1 Invitrogen selectivity data (BI); conditions: Compound concentration 3.0 uM
Serine/threonine-protein kinase N1 (Homo sapiens), sequence (Q16512 2-942 limits assumed): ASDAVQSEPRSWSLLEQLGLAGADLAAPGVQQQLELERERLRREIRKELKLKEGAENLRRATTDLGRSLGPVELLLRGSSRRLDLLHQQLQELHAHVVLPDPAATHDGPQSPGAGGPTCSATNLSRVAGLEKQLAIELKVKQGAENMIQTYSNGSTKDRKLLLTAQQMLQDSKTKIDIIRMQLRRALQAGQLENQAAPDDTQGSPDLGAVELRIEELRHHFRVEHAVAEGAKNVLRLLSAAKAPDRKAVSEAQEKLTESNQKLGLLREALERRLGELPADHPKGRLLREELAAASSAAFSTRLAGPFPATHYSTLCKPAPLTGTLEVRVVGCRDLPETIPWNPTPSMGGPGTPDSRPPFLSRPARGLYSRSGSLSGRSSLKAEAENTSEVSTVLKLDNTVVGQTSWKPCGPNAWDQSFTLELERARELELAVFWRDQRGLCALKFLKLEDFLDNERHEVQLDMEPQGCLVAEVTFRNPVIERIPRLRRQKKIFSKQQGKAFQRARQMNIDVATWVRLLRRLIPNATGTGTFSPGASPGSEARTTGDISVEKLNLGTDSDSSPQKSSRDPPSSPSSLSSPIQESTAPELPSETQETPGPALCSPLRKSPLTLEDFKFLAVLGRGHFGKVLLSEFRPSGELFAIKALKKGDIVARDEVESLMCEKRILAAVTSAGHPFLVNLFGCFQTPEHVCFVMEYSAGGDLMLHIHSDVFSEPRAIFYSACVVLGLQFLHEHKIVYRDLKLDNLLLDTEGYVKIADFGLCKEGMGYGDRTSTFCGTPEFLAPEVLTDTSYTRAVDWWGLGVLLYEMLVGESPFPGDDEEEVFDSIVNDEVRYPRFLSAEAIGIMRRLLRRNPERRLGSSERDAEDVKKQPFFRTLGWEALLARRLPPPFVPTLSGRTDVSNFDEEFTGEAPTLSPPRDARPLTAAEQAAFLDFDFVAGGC

[27] = target: Ribosomal protein S6 kinase beta-1 (Homo sapiens) (UniProt P23443); assay: RPS6KB1 Invitrogen selectivity data (BI); conditions: Compound concentration 3.0 uM
[28] = target: Testis-specific serine/threonine-protein kinase 2 (Homo sapiens) (UniProt Q96PF2); assay: STK22B Invitrogen selectivity data (BI); conditions: Compound concentration 3.0 uM
Testis-specific serine/threonine-protein kinase 2 (Homo sapiens), sequence (Q96PF2 whole entry): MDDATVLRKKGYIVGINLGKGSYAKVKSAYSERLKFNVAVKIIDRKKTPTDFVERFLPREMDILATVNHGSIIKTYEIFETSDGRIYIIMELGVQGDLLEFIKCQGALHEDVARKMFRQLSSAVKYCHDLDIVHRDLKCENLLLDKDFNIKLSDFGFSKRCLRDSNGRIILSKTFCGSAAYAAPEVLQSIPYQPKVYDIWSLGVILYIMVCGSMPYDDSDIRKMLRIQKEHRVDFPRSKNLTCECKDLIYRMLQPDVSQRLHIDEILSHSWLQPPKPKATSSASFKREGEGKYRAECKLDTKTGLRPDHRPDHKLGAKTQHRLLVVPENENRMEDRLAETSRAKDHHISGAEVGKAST

[29] = target: Angiopoietin-1 receptor (Homo sapiens) (UniProt Q02763); assay: TEK Invitrogen selectivity data (BI); conditions: Compound concentration 3.0 uM
[30] = target: T2, TGF-beta receptor type-1 (Homo sapiens) (UniProt P36897); assay: TGFBR1 Invitrogen selectivity data (BI); conditions: Compound concentration 3.0 uM
T2 sequence (whole entry): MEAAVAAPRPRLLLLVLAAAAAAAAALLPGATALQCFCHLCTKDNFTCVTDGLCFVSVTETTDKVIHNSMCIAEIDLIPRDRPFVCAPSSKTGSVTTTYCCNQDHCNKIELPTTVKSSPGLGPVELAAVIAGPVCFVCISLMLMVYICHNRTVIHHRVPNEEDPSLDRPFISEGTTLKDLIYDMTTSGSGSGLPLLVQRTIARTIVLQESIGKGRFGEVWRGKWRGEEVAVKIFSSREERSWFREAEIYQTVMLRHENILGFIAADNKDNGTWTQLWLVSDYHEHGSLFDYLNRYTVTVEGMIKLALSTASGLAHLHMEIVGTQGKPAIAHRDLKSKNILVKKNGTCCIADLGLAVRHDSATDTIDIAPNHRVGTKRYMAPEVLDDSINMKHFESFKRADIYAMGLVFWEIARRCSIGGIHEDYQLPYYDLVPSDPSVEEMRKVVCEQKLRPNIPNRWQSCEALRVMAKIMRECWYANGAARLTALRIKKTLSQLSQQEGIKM

[31] = target: Alpha-1A adrenergic receptor (Rattus norvegicus) (UniProt P43140); assay: ALPHA1A/R Eurofins-Panlabs selectivity data (BI); conditions: Compound concentration 10.0 uM

Alpha-2B adrenergic receptor (Homo sapiens), sequence (P18089 whole entry): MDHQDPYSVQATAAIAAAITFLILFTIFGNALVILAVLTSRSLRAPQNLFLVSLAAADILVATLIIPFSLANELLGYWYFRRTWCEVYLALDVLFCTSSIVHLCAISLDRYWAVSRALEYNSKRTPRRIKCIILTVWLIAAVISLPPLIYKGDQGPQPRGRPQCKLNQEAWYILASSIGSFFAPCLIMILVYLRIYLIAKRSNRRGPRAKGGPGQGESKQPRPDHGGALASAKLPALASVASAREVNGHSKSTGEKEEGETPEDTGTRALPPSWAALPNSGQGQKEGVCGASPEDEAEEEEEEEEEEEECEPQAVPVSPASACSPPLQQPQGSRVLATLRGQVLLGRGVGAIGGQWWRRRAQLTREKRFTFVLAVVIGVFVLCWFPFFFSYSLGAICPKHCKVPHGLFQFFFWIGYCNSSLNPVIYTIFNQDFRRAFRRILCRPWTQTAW
Sigma non-opioid intracellular receptor 1 (Homo sapiens), sequence (Q99720 whole entry): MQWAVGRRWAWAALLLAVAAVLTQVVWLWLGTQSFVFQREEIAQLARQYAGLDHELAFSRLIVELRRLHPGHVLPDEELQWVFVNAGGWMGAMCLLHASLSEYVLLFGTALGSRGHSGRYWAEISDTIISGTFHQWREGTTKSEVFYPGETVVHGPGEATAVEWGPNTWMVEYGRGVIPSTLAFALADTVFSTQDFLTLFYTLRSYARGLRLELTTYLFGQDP

## CN(C)C(=O)Cn1cc(-c2nc(C3(c4ccc(-c5cnc(N)nc5)cc4)CC3)no2)cn1 [BI 0153]
[1]
  inhibition: -3.57%
[2]
  inhibition: -4.19%

## CN(C)C(=O)Cn1cc(-c2nc([C@@](C)(c3ccc(-c4cnc(N)nc4)cc3)C3CC3)no2)cn1 [BI 665915]
[3]
  residual activity: 105%
[4]
  residual activity: 99%
[5]
  residual activity: 93%
[6]
  residual activity: 119%
[7]
  residual activity: 100%
[8]
  residual activity: 107%
[9]
  residual activity: 79%
[10]
  activity at 20 µM: 91% (not active)
[11]
  residual activity: 101%
[12]
  residual activity: 102%
[13]
  residual activity: 106%
[14]
  residual activity: 88%
[15]
  residual activity: 123%
[16]
  residual activity: 97%
[17]
  residual activity: 99%
[18]
  residual activity: 101%
[19]
  residual activity: 95%
[20]
  residual activity: 94.5%
[21]
  residual activity: 89%
[22]
  residual activity: 96.5%
[23]
  residual activity: 94%
[24]
  residual activity: 97.5%
[25]
  residual activity: 95%
[26]
  residual activity: 98.5%
[27]
  residual activity: 97.5%
[28]
  residual activity: 93%
[29]
  residual activity: 97%
[30]
  residual activity: 96%
[31]
  residual activity: 100%
